Patent US6548494B1, “Tricyclic inhibitors of poly(ADP-ribose) polymerases” (Agouron Pharmaceuticals, Inc., priority 1999, dated 2003)
“And” between values parts separate entries of the source, which are not always exact repeats. Equal values may be shown once.

Legend:
purified PARP protein = purified PARP protein (Homo sapiens, UniProt P09874); assay: PARP enzyme inhibition assay; type: biochemical; conditions: 20 nM purified PARP (5 nM for tight-binding inhibitors), 500 μM NAD+, 25° C.; several values in one cell = repeat determinations; read-out: Inhibition Constant Ki
Chain of purified PARP protein (P09874 whole entry): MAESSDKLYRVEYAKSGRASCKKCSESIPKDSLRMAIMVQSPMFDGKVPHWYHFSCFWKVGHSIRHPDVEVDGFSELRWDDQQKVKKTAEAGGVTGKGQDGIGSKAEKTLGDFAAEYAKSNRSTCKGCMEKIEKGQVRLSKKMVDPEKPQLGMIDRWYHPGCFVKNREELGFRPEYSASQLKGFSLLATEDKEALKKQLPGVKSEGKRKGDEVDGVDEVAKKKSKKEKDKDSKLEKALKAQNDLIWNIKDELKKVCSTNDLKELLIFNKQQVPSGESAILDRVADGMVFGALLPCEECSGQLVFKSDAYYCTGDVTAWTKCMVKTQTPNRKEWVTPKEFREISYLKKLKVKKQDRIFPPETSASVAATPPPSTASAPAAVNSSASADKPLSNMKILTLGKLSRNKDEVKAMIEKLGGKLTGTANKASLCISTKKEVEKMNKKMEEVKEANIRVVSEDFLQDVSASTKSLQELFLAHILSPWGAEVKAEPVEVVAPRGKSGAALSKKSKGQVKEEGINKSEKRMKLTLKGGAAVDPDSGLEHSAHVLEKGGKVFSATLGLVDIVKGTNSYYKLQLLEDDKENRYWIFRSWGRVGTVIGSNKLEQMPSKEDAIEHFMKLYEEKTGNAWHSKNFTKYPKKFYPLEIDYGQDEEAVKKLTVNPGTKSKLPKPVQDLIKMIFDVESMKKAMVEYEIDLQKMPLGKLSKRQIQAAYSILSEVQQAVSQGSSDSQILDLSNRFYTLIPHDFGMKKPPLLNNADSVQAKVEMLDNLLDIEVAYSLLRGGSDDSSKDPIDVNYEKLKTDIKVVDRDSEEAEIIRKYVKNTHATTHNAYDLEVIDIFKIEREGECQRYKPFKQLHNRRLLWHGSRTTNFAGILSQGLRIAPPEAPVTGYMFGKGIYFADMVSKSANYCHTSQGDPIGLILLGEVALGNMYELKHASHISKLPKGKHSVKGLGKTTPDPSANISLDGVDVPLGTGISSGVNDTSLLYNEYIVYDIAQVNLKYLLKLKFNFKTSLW

Row | SMILES | melting point | Ki (purified PARP protein)
1 | O=C1NCCn2c(-c3ccc(Sc4ccc(Cl)cc4)nc3)nc3cccc1c32 [Example 108, 1-[6-(4-Chloro-phenylsulfanyl)-pyridin-3-yl]-8,9-dihydro-7H-2,7,9a-triaza-benzo[cd]azulen-6-one] | 280 to 284 °C (dec.) | 6 nM
2 | O=C1NCCn2c(C(F)(F)F)nc3cccc1c32 [Example 112, 1-Trifluoromethyl-8,9-dihydro-7H-2,7,9a-triaza-benzo[cd]azulen-6-one] | 277 to 281 °C (dec.) | 18 nM
3 | O=C1NCCn2c(C(=O)N3CCOCC3)nc3cccc1c32 [Example 113, 1-(Mompholine-4-carbonyl)-8,9-dihydro-7H-2,7,9a-triaza-benzo[cd]azulen-6-one] | 271 to 274 °C (dec.) | 24 nM
4 | O=C1NCCn2c(-c3ccc(=O)n(Cc4ccccc4)c3)nc3cccc1c32 [Example 114, 1-(1-Benzyl-6-oxo-1,6-dihydro-pyridin-3-yl)-8,9-dihydro-7H-2,7,9a-triaza-benzo[cd]azulen-6-one] | 265 to 269 °C (dec.) | 9.9 nM
5 | O=C1NCCn2c(C34CC5CC(CC(C5)C3)C4)nc3cccc1c32 [Example 117, 1-Tricyclo[3.3.1.1]dec-1-yl-8,9-dihydro-7H-2,7,9a-triaza-benzo[cd]azulene-6-one] | 304 to 306 °C | 9.5 nM
6 | O=C1NCCn2c(-c3ccc(CN4CC[S+]([O-])CC4)cc3)nc3cccc1c32 [Example 122, 1-[4-(Oxo-1λ^4-thiomorpholin-4-ylmethyl)-phenyl]-8,9-dihydro-7H-2,7,9a-triaza-benzo[cd]azulen-6-one] | 247 °C (dec.) | 7 nM
7 | O=C1NCCn2c(-c3ccc(OCCN4CCCC4)cc3)nc3cccc1c32 [Example 123, 1-[4-(2-Pyrrolidin-1-yl-ethoxy)-phenyl]-8,9-dihydro-7H-2,7,9a-triaza-benzo[cd]azulen-6-one] | 172 to 175 °C | 9 nM
8 | O=C1NCCn2c(-c3ccc(CCOC4CCCCO4)cc3)nc3cccc1c32 (stereo not shown) [Example 125, 1-{4-[2-(Tetrahydro-pyran-2-yloxy)-ethyl]-phenyl}-8,9-dihydro-7H-2,7,9a-triaza-benzo[cd]azulen-6-one] | 189 to 190 °C | 11 nM
9 | Cn1nnc(-c2ccc(-c3nc4cccc5c4n3CCNC5=O)cc2)n1 [Example 133, 1-[4-(2-Methyl-2H-tetrazol-5-yl)-phenyl]-8,9-dihydro-7H-2,7,9a-triaza-benzo[cd]azulen-6-one] | 280 °C (dec.) | 6.9 nM
10 | O=C1NCCn2c(-c3ccc(-c4ccncc4)cc3)nc3cccc1c32 [Example 135, 1-(4-Pyridin-4-yl-phenyl)-8,9-dihydro-7H-2,7,9a-triaza-benzo[cd]azulen-6-one] | 370 to 372 °C (dec.) | 3.8 nM
11 | CSc1nc2cccc3c2n1CCNC3=O [Example 138, 1-Methylsulfanyl-8,9-dihydro-7H-2,7,9a-triaza-benzo[cd]azulen-6-one] | 223 to 225 °C | 11 nM
12 | CN1CCCC(c2ccc(-c3nc4cccc5c4n3CCNC5=O)cc2)C1 (stereo not shown) [Example 144, 1-[4-(Methyl-piperidin-3-yl)-phenyl]-8,9-dihydro-7H-2,7,9a-triaza-benzo[cd]azulen-6-one] | 240 to 242 °C | 7.4 nM

More lines, now with the values ahead:

Row | melting point | Ki (purified PARP protein) | SMILES
13 | 297 to 301 °C (dec.) | 25 nM | Cc1ccc(-c2onc3ccc(-c4nc5cccc6c5n4CCNC6=O)cc23)cc1 [Example 107, 1-(3-p-Tolyl-benzo[c]isoxazol-5-yl)-8,9-dihydro-7H-2,7,9a-triaza-benzo[cd]azulen-6-one]
14 | 281 to 288 °C (dec.) | 5.5 nM | N#Cc1ccc(Oc2ccc(-c3nc4cccc5c4n3CCNC5=O)cn2)cc1 [Example 109, 4-[5-(6-Oxo-6,7,8,9-tetrahydro-2,7,9a-triaza-benzo[cd]azulen-1-yl)-pyridin-2-yloxy]-benzonitrile]
15 | 247 to 250 °C | 18 nM | O=C1NCCn2c(C(=O)NCc3ccccc3)nc3cccc1c32 [Example 110, 6-Oxo-6,7,8,9-tetrahydro-2,7,9a-triaza-benzo[cd]azulen-1-carboxylic Acid Benzylamide]
16 | 208 to 214 °C | 5.1 nM | N#CCCNCc1ccc(-c2nc3cccc4c3n2CCNC4=O)cc1 [Example 111, 3-[4-(6-Oxo-6,7,8,9-tetrahydro-2,7,9a-triaza-benzo[cd]azulen-1-yl)-benzylamino]-propionitrile]
17 | 311 to 316 °C (dec.) | 116 nM | CN1CCN(C(=O)c2nc3cccc4c3n2CCNC4=O)CC1 [Example 115, 1-(4-Methyl-piperazine-1-carbonyl)-8,9-dihydro-7H-2,7,9a-triaza-benzo[cd]azulen-6-one]
18 | 244 to 248 °C (dec.) | 5.2 nM | NC(=O)c1ccc(Oc2ccc(-c3nc4cccc5c4n3CCNC5=O)cn2)cc1 [Example 116, 4-[5-(6-Oxo-6,7,8,9-tetrahydro-2,7,9a-triaza-benzo[cd]azulen-1-yl)-pyridin-2-yloxy]-benzamide]
19 | > 280 °C (dec.) | 4.4 nM | O=C1NCCn2c(-c3ccc(Cl)nc3)nc3cccc1c32 [Example 118, 1-(6-Chloro-pyridin-3-yl)-8,9-dihydro-7H-2,7,9a-triaza-benzo[cd]azulen-6-one]
20 | 253 to 254 °C (dec.) | 7.3 nM | O=C1NCCn2c(-c3ccc(OCCO)cc3)nc3cccc1c32 [Example 120, 1-[4-(2-Hydroxy-ethoxy)-phenyl]-8,9-dihydro-7H-2,7,9a-triaza-benzo[cd]azulen-6-one]
21 | 184 to 186 °C | 8 nM | CN(C)CCOc1ccc(-c2nc3cccc4c3n2CCNC4=O)cc1 [Example 124, 1-[4-(2-Dimethylamino-ethoxy)-phenyl]-8,9-dihydro-7H-2,7,9a-triaza-benzo[cd]azulen-6-one]
22 | 263 to 265 °C | 3.5 nM and 3.6 nM | O=C1NCCn2c(-c3ccc(CCO)cc3)nc3cccc1c32 [Example 127, 1-[4-(2-Hydroxy-ethyl)-phenyl]-8,9-dihydro-7H-2,7,9a-triaza-benzo[cd]azulen-6-one]
23 | > 290 °C (dec.) | 96 nM | O=C1NCCn2c(-c3ccc(-c4nn[nH]n4)cc3)nc3cccc1c32 [Example 136, 1-[4-(2H-Tetrazol-5-yl)-phenyl]-8,9-dihydro-7H-2,7,9a-triaza-benzo[cd]azulen-6-one]
24 | 241 to 242 °C (dec.) | 12 nM | C[S+]([O-])c1nc2cccc3c2n1CCNC3=O (stereo not shown) [Example 139, 1-Methanesulfinyl-8,9-dihydro-7H-2,7,9a-triaza-benzo[cd]azulen-6-one]
25 | > 190 °C (dec.) | 6.8 nM | CS(=O)(=O)c1nc2cccc3c2n1CCNC3=O [Example 140, 1-Methanesulfonyl-8,9-dihydro-7H-2,7,9a-triaza-benzo[cd]azulen-6-one]
26 | 186 °C (dec.) | 20 nM | O=C1NCCn2c(NCc3ccccc3)nc3cccc1c32 [Example 145, 1-Benzylamino-8,9-dihydro-7H-2,7,9a-triaza-benzo[cd]azulen-6-one]
